Laboratory results as given in US6620828B2, “Thiazole compounds and pharmaceutical compositions for inhibiting protein kinases and methods for their use” (Agouron Pharmaceuticals, Inc., priority 1999, dated 2003).
Like-named read-outs stand apart in the source and are kept apart here.

Legend:
Format in all cases: biochemical
[1] = biological target: T1, phosphorylated VEGF-R2Δ50 (Homo sapiens, UniProt P35968, DEL940-989/E990V); assay: VEGF-R2 ELISA assay; conditions: for Ki: * determined with ELISA assay, read-out: FLVK-P Ki; for FLVK-P % inhibition @ 300*: at 300 (head μM)
T1 construct: VEGF-R2Δ50 contains residues 806-939 and 990-1171; made in house; host or cells: baculovirus/insect cells
Text: VEGF-R2 Construct for Assay: This construct determines the ability of a test compound to inhibit tyrosine kinase activity. A construct (VEGF-R2Δ50) of the cytosolic domain of human vascular endothelial growth factor receptor 2 (VEGF-R2) lacking the 50 central residues of the 68 residues of the kinase insert domain was expressed in a baculovirus/insect cell system. Of the 1356 residues of full-length VEGF-R2, VEGF-R2Δ50 contains residues 806-939 and 990-1171, and also one point mutation (E990V) within the kinase insert domain relative to wild-type VEGF-R2. Autophosphorylation of the purified construct was performed by incubation of the enzyme at a concentration of 4 μM in the presence of 3 mM ATP and 40 mM MgCl2 in 100 mM Hepes, pH 7.5, containing 5% glycerol and 5 mM DTT, at 4° C. for 2 h. […] See Parast et al., Biochemistry, 37, 16788-16801 (1998).
Formation of phosphogastrin was monitored using biotinylated gastrin peptide (1-17) as substrate. Biotinylated phosphogastrin was immobilized using streptavidin coated 96-well microtiter plates followed by detection using anti-phosphotyrosine-antibody conjugated to horseradish peroxidase. The activity of horseradish peroxidase was monitored using 2,2′-azino-di-[3-ethylbenzathiazoline sulfonate(6)]diammonium salt (ABTS). Typical assay solutions contained: 2 μM biotinylated gastrin peptide; 5 mM DTT; 20 μM ATP; 26 mM MgCl2; and 2 mM MnCl2 in 200 mM Hepes, pH 7.5. The assay was initiated with 0.8 nM of phosphorylated VEGF-R2Δ50. Horseradish peroxidase activity was assayed using ABTS, 10 mM. The horseradish peroxidase reaction was quenched by addition of acid (H2SO4), followed by absorbance reading at 405 nm. Ki values were determined by measuring enzyme activity in the presence of varying concentrations of test compounds. The data were analyzed using Enzyme Kinetic and Kaleidagraph software.

[2] = biological target: CDK2/Cyclin A complex (Homo sapiens, UniProt P24941); assay: CDK2/Cyclin A assay; conditions: Table 2
Outline: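 Radiometric assay: 150 nM CDK2/cyclin A (insect-cell CDK2, truncated cyclin A) phosphorylates His-tagged Rb fragment (residues 386-928) with 25 μM ATP plus [32P]ATP, pH 7.4 HEPES, 2% DMSO, 30 °C for 20 min. Filter-captured product counted by phosphorimager; apparent Ki from competitive or tight-binding inhibition fits.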

[3] = biological target: T2, CDK4/Cyclin D3 complex (Homo sapiens, UniProt P11802); assay: CDK4/Cyclin D assay; conditions: Table 2; for inhibition at 100 µM: at 100 (printed 100 or 100 μM)
T2 construct: made in house; host or cells: insect cells co-infected with baculovirus vectors
Outline: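 Insect-cell-expressed CDK4/cyclin D3 (50 nM) phosphorylating His-tagged Rb fragment (residues 386-928) with 25 μM [^32P]ATP in HEPES pH 7.4, MgCl2, 2% DMSO; 20 min at 30 °C, EDTA stop. Filter-captured 32P by phosphorimager; apparent Ki from competitive or tight-binding inhibition fits.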

T2 sequence (P11802 whole entry): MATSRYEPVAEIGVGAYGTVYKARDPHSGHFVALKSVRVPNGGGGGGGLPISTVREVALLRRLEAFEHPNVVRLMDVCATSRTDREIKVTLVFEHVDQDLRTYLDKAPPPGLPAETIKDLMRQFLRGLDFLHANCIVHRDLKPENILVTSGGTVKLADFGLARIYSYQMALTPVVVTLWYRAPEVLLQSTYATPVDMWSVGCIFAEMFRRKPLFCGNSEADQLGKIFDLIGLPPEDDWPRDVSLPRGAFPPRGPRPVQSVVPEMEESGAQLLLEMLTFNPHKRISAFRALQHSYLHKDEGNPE
T2 sequence (P30281 whole entry partner): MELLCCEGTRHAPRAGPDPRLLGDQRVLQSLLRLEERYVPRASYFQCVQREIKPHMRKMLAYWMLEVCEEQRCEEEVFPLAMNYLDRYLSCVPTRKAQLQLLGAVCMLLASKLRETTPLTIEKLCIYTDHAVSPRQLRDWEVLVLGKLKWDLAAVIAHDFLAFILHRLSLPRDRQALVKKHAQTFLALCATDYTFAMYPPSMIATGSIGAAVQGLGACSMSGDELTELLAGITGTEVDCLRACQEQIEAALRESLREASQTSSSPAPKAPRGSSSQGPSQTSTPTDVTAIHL
T1 sequence (P35968 with tags, fused parts or gaps DEL940-989/E990V limits assumed): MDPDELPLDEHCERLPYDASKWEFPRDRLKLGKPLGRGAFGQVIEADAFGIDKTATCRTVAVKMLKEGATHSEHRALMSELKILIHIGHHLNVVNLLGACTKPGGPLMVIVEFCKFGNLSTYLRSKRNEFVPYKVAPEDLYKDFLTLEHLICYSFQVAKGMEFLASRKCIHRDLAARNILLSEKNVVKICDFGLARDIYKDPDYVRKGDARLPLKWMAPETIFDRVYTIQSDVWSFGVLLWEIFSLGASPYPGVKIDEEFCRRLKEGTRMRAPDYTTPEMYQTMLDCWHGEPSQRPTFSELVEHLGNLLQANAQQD

SMILES	Ki ([1]; Table 2)	Ki ([1]; Table 1)	further results
COc1cc(Nc2nc(N)c(C3=NC(c4ccccc4Br)CO3)s2)cc(OC)c1OC (racemic) [I(13), (R/S)-5-[4-(2-Bromo-phenyl)-4,5-dihydro-oxazol-2-yl]-N^2-(3,4,5-trimethoxy-phenyl)-thiazole-2,4-diamine]	1.25 µM		
COc1cc(Nc2nc(N)c(C3=NC(c4cccc(Br)c4)CO3)s2)cc(OC)c1OC (racemic) [I(14), (R/S)-5-[4-(3-Bromo-phenyl)-4,5-dihydro-oxazol-2-yl]-N^2-(3,4,5-trimethoxy-phenyl)-thiazole-2,4-diamine]	1.17 µM		
COc1cc(Nc2nc(N)c(C3=NC(C)CO3)s2)cc(OC)c1OC (racemic) [I(15), (R/S)-5-(4-Methyl-4,5-dihydro-oxazol-2-yl)-N^2-(3,4,5-trimethoxy-phenyl)-thiazole-2,4-diamine]	73 µM		
COc1cc(Nc2nc(N)c(C3=NC(C(C)C)CO3)s2)cc(OC)c1OC (racemic) [I(17), (R/S)-5-(4-Isopropyl-4,5-dihydro-oxazol-2-yl)-N^2-(3,4,5-trimethoxy-phenyl)-thiazole-2,4-diamine]	35 µM		
COc1cc(Nc2nc(N)c(C3=NCC(C)O3)s2)cc(OC)c1OC (racemic) [I(19), (R/S)-5-(5-Methyl-4,5-dihydro-oxazol-2-yl)-N^2-(3,4,5-trimethoxy-phenyl)-thiazole-2,4-diamine]	34 µM		
COc1cc(Nc2nc(N)c(C3=N[C@@H](C)C(c4ccccc4)O3)s2)cc(OC)c1OC (stereo in doubt) [I(16), 5-(4-Methyl-5-phenyl-4,5-dihydro-oxazol-2-yl)-N^2-(3,4,5-trimethoxy-phenyl)-thiazole-2,4-diamine]	178 µM		
Nc1nc(Nc2ccc(S(N)(=O)=O)cc2)sc1-c1nc(-c2ccc(O)cc2)cs1 [A(8), 4-[4′-Amino-4-(4-hydroxy-phenyl)-[2,5′]bithiazolyl-2′-ylamino]-benzenesulfonamide]	0.058 µM		Ki [2]: 0.8 µM; Ki [3]: 0.42 µM
COc1cc(Nc2nc(N)c(-c3nc(-c4cccc(NC(=O)Cc5ccccc5)c4)cs3)s2)cc(OC)c1OC [D(5), N-{3-[4′-Amino-2′-(3,4,5-trimethoxy-phenylamino)-[2,5′]bithiazolyl-4-yl]-phenyl}-2-phenyl-acetamide]		0.063 µM	
COC(=O)Nc1cccc(-c2csc(-c3sc(Nc4cc(OC)c(OC)c(OC)c4)nc3N)n2)c1 [D(6), {3-[4′-Amino-2′-(3,4,5-trimethoxy-phenylamino)-[2,5′]bithiazolyl-4-yl]-phenyl}-carbamic acid methyl ester]		0.025 µM	
CNC(=O)Nc1cccc(-c2csc(-c3sc(Nc4cc(OC)c(OC)c(OC)c4)nc3N)n2)c1 [D(7), 1-{3-[4′-Amino-2′-(3,4,5-trimethoxy-phenylamino)-[2,5′]bithiazolyl-4-yl]-phenyl}-3-methyl-urea]		0.12 µM	
CCC(=O)Nc1cccc(-c2csc(-c3sc(Nc4cc(OC)c(OC)c(OC)c4)nc3N)n2)c1 [D(8), N-{3-[4′-Amino-2′-(3,4,5-trimethoxy-phenylamino)-[2,5′]bithiazolyl-4-yl]-phenyl}-propionamide]		0.029 µM	
COc1cc(Nc2nc(N)c(-c3nc(-c4cccc(NC(=O)CC(C)C)c4)cs3)s2)cc(OC)c1OC [D(9)]		0.047 µM	
COc1cc(Nc2nc(N)c(-c3nc(-c4cccc(NC(=O)OC(C)C)c4)cs3)s2)cc(OC)c1OC [D(10), {3-[4′-Amino-2′-(3,4,5-trimethoxy-phenylamino)-[2,5′]bithiazolyl-4-yl]-phenyl}-carbamic acid isopropyl ester]		0.056 µM	
COc1cc(Nc2nc(N)c(-c3nc(-c4cccc(NC(=O)C(F)(F)F)c4)cs3)s2)cc(OC)c1OC [D(13), N-{^3-[4′-Amino-2′-(3,4,5-trimethoxy-phenylamino)-[2,5′]bithiazolyl-4-yl]-phenyl}-2,2,2-trifluoro-acetamide]		0.12 µM	
COc1cc(Nc2nc(N)c(-c3nc(-c4cccc(NC(=O)C(F)F)c4)cs3)s2)cc(OC)c1OC [D(14), N-{3-[4′-Amino-2′-(3,4,5-trimethoxy-phenylamino)-[2,5′]bithiazolyl-4-yl]-phenyl}-2,2-difluoro-acetamide]		0.12 µM	
COc1cc(Nc2nc(N)c(-c3nc(-c4cccc(NC(=O)COc5ccccc5)c4)cs3)s2)cc(OC)c1OC [D(15), N-{3-[4′-Amino-2′-(3,4,5-trimethoxy-phenylamino)-[2,5′]bithiazolyl-4-yl]-phenyl}-2-phenoxy-acetamide]		0.24 µM	
COc1cc(Nc2nc(N)c(-c3nc(-c4cccc(NC(=O)Oc5cccc6ccccc56)c4)cs3)s2)cc(OC)c1OC [D(22), {3-[4′-Amino-2′-(3,4,5-trimethoxy-phenylamino)-[2,5′]bithiazolyl-4-yl]-phenyl}-carbamic acid naphthalen-1-yl ester]		0.089 µM	
COc1cc(Nc2nc(N)c(-c3ccccn3)s2)cc(OC)c1OC [G(1), 5-Pyridin-2-yl-N^2-(3,4,5-trimethoxy-phenyl)-thiazole-2,4-diamine]	57 µM		Ki [3]: 50 µM
Nc1nc(Nc2ccccc2)sc1-c1ccccn1 [G(2), N^2-Phenyl-5-pyridin-2-yl-thiazole-2,4-diamine]			FLVK-P % inhibition @ 100* ([1]; Table 2, ELISA assay, at 100 (head μM)): 18% @; Ki [3]: 5.7 µM
Nc1nc(Nc2ccc3c(c2)OCCO3)sc1-c1ccccn1 [G(3), N^2-(2,3-Dihydro-benzo[1,4]dioxin-6-yl)-5-pyridin-2-yl-thiazole-2,4-diamine]			FLVK-P % inhibition @ 20* ([1]; Table 2, ELISA assay, at 20 (head μM)): 13% @; Ki [3]: 6.2 µM
COc1ccc(Nc2nc(N)c(-c3ccccn3)s2)cc1OC [G(4), N^2-(3,4-Dimethoxy-phenyl)-5-pyridin-2-yl-thiazole-2,4-diamine]			FLVK-P % inhibition @ 300* ([1]; Table 2, ELISA assay): 42% @; Ki [3]: 11.4 µM
COc1cc(Nc2nc(N)c(-c3noc(-c4ccsc4)n3)s2)cc(OC)c1OC [G(7), 5-(5-Thiophen-3-yl-[1,2,4]oxadiazol-3-yl)-N^2-(3,4,5-trimethoxy-phenyl)-thiazole-2,4-diamine]	1.6 µM		CDK2 % inhibition @ 10 ([2]; at 10 (head μM)): 21% @
COc1cc(Nc2nc(N)c(C3=NC(CC(C)C)CO3)s2)cc(OC)c1OC (stereo not drawn) [I(3), S-5-(4-Isobutyl-4,5-dihydro-oxazol-2-yl)-N^2-(3,4,5-trimethoxyl-phenyl)-thiazole-2,4-diamine]			FLVK-P % inhibition @ 300* ([1]; Table 2, ELISA assay): 40% @; inhibition at 100 µM [3]: < 0%
Nc1nc(Nc2ccc(S(N)(=O)=O)cc2)sc1C1=NC(c2ccccc2)CO1 (stereo not drawn) [I(5), S-4-[4-Amino-5-(4-phenyl-4,5-dihydro-oxazol-2-yl)-thiazol-2-ylamino]-benzenesulfonamide]	0.77 µM		inhibition at 100 µM [3]: 47%
COc1cc(Nc2nc(N)c(C3=N[C@H](c4ccccc4)CO3)s2)cc(OC)c1OC [I(7), R-5-(4-Phenyl-4,5-dihydro-oxazol-2-yl)-N^2-(3,4,5-trimethoxyl-phenyl)-thiazole-2,4-diamine]	5.2 µM		
COc1cc(Nc2nc(N)c(C3=N[C@H](C)[C@H](c4ccccc4)O3)s2)cc(OC)c1OC [I(18), 5-(4(R)-Methyl-5(S)-phenyl-4,5-dihydro-oxazol-2-yl)-N^2-(3,4,5-trimethoxy-phenyl)-thiazole-2,4-diamine]	2.7 µM		
COc1cc(Nc2nc(N)c(-c3nn[nH]n3)s2)cc(OC)c1OC [J(1), 5-(2H-Tetrazol-5-yl-)-N-(3,4,5-trimethoxyl)-thiazole-2,4-diamine]	64 µM		inhibition at 100 µM [3]: < 0%
CN(C)c1ccc(Nc2nc(N)c(-c3nn[nH]n3)s2)cc1 [J(2), N-(4-Dimethylamino-phenyl)-5-(2H-tetrazol-5-yl)-thiazole-2,4-diamine]	53 µM		inhibition at 100 µM [3]: 29%
